Reference: ChEMBL document CHEMBL1201862, “PubChem BioAssay data set” (2004)
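Test compounds were applied to cells in 96-well plates for 48 hours at 5 doses. GI50 is the concentration that inhibits growth by half.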 Calls of active or inactive are those of the source. Rule as the data show it: active = GI50 up to about 1.1 µM and inactive = higher.

Tests used:
Experiment in all cases: growth of human tumour cells (NCI), 48 h
786-0 = system: 786-0
A498 = system: A498
ACHN = system: ACHN
BT-549 = system: BT-549
CAKI-1 = system: CAKI-1
CCRF-CEM = system: CCRF-CEM
COLO 205 = system: COLO 205
DU-145 = system: DU-145
EKVX = system: EKVX
HCT-116 = system: HCT-116
HCT-15 = system: HCT-15
HL-60 = system: HL-60
HOP-62 = system: HOP-62
HT-29 = system: HT-29
Hs-578T = system: Hs-578T
IGROV-1 = system: IGROV-1
K562 = system: K562
KM12 = system: KM12
LOX IMVI = system: LOX IMVI
M14 = system: M14
MCF7 = system: MCF7
MDA-MB-231 = system: MDA-MB-231
MDA-MB-435 = system: MDA-MB-435
MDA-N = system: MDA-N
MOLT-4 = system: MOLT-4
Malme-3M = system: Malme-3M
NCI-H226 = system: NCI-H226
NCI-H23 = system: NCI-H23
NCI-H460 = system: NCI-H460
NCI/ADR-RES = system: NCI/ADR-RES
OVCAR-3 = system: OVCAR-3
OVCAR-5 = system: OVCAR-5
OVCAR-8 = system: OVCAR-8
PC-3 = system: PC-3
RPMI-8226 = system: RPMI-8226
RXF 393 = system: RXF 393
SF-268 = system: SF-268
SF-295 = system: SF-295
SF-539 = system: SF-539
SK-MEL-28 = system: SK-MEL-28
SK-MEL-2 = system: SK-MEL-2
SK-OV-3 = system: SK-OV-3
SN12C = system: SN12C
SNB-19 = system: SNB-19
SNB-75 = system: SNB-75
SR = system: SR
SW-620 = system: SW-620
TK-10 = system: TK-10
U-251 = system: U-251
UACC-257 = system: UACC-257
UACC-62 = system: UACC-62
A549 = system: A549
HCC 2998 = system: HCC 2998
HOP-92 = system: HOP-92
NCI-H522 = system: NCI-H522
OVCAR-4 = system: OVCAR-4
SK-MEL-5 = system: SK-MEL-5
UO-31 = system: UO-31

`O=C(O)c1ccc2[nH]c(=O)oc2c1` was tested, and the GI50 (786-0) was > 100 µM (inactive), the GI50 (A498) was > 100 µM (inactive) and the GI50 (ACHN) was > 100 µM (inactive). The GI50 (BT-549) was > 100 µM (inactive), the GI50 (CAKI-1) was > 100 µM (inactive) and the GI50 (CCRF-CEM) was > 100 µM (inactive). For the same compound, the GI50 (COLO 205) was > 100 µM (inactive), the GI50 (DU-145) was > 100 µM (inactive) and the GI50 (EKVX) was > 100 µM (inactive). The GI50 (HCT-116) was > 100 µM (inactive), the GI50 (HCT-15) was greater than 100 µM and the GI50 (HL-60) was > 100 µM (inactive). For the same compound, the GI50 (HOP-62) was > 100 µM (inactive), the GI50 (HT-29) was > 100 µM (inactive) and the GI50 (Hs-578T) was > 100 µM (inactive). The GI50 (IGROV-1) was > 100 µM (inactive), the GI50 (K562) was > 100 µM (inactive) and the GI50 (KM12) was > 100 µM (inactive). The GI50 (LOX IMVI) was > 100 µM (inactive), the GI50 (M14) was > 100 µM (inactive) and the GI50 (MCF7) was > 100 µM (inactive). The GI50 (MDA-MB-231) was > 100 µM (inactive), the GI50 (MDA-MB-435) was > 100 µM (inactive) and the GI50 (MDA-N) was > 100 µM (inactive). For the same compound, the GI50 (MOLT-4) was > 100 µM (inactive), the GI50 (Malme-3M) was > 100 µM (inactive) and the GI50 (NCI-H226) was > 100 µM (inactive). For the same compound, the GI50 (NCI-H23) was > 100 µM (inactive), the GI50 (NCI-H460) was > 100 µM (inactive) and the GI50 (NCI/ADR-RES) was > 100 µM (inactive). For the same compound, the GI50 (OVCAR-3) was > 100 µM (inactive), the GI50 (OVCAR-5) was > 100 µM (inactive) and the GI50 (OVCAR-8) was > 100 µM (inactive). For the same compound, the GI50 (PC-3) was > 100 µM (inactive), the GI50 (RPMI-8226) was > 100 µM (inactive) and the GI50 (RXF 393) was > 100 µM (inactive). The GI50 (SF-268) was > 100 µM (inactive), the GI50 (SF-295) was > 100 µM (inactive) and the GI50 (SF-539) was > 100 µM (inactive). The GI50 (SK-MEL-28) was > 100 µM (inactive), the GI50 (SK-MEL-2) was > 100 µM (inactive) and the GI50 (SK-OV-3) was > 100 µM (inactive). For the same compound, the GI50 (SN12C) was > 100 µM (inactive), the GI50 (SNB-19) was > 100 µM (inactive) and the GI50 (SNB-75) was > 100 µM (inactive). The GI50 (SR) was > 100 µM (inactive), the GI50 (SW-620) was > 100 µM (inactive) and the GI50 (TK-10) was > 100 µM (inactive). For the same compound, the GI50 (U-251) was > 100 µM (inactive), the GI50 (UACC-257) was > 100 µM (inactive) and the GI50 (UACC-62) was > 100 µM (inactive).

For `N#Cc1c(O)cc(=O)n2c1[nH]c1ccccc12`, the GI50 (786-0) was > 100 µM (inactive), the GI50 (A498) was > 100 µM (inactive) and the GI50 (A549) was > 100 µM (inactive). For the same compound, the GI50 (ACHN) was > 100 µM (inactive), the GI50 (BT-549) was > 100 µM (inactive) and the GI50 (CAKI-1) was > 100 µM (inactive). The GI50 (CCRF-CEM) was > 100 µM (inactive), the GI50 (COLO 205) was > 100 µM (inactive) and the GI50 (DU-145) was > 100 µM (inactive). The GI50 (EKVX) was > 100 µM (inactive), the GI50 (HCC 2998) was > 100 µM (inactive) and the GI50 (HCT-116) was > 100 µM (inactive). The GI50 (HCT-15) was greater than 100 µM, the GI50 (HL-60) was > 100 µM (inactive) and the GI50 (HOP-62) was > 100 µM (inactive). The GI50 (HOP-92) was > 100 µM (inactive), the GI50 (HT-29) was > 100 µM (inactive) and the GI50 (Hs-578T) was > 100 µM (inactive). For the same compound, the GI50 (IGROV-1) was > 100 µM (inactive), the GI50 (K562) was > 100 µM (inactive) and the GI50 (KM12) was > 100 µM (inactive). For the same compound, the GI50 (M14) was > 100 µM (inactive), the GI50 (MCF7) was > 100 µM (inactive) and the GI50 (MDA-MB-231) was > 100 µM (inactive). The GI50 (MDA-MB-435) was > 100 µM (inactive), the GI50 (MDA-N) was > 100 µM (inactive) and the GI50 (MOLT-4) was > 100 µM (inactive). The GI50 (Malme-3M) was > 100 µM (inactive), the GI50 (NCI-H226) was > 100 µM (inactive) and the GI50 (NCI-H23) was > 100 µM (inactive). For the same compound, the GI50 (NCI-H460) was > 100 µM (inactive), the GI50 (NCI-H522) was > 100 µM (inactive) and the GI50 (NCI/ADR-RES) was > 100 µM (inactive). The GI50 (OVCAR-3) was > 100 µM (inactive), the GI50 (OVCAR-4) was > 100 µM (inactive) and the GI50 (OVCAR-5) was > 100 µM (inactive). For the same compound, the GI50 (OVCAR-8) was > 100 µM (inactive), the GI50 (PC-3) was > 100 µM (inactive) and the GI50 (RPMI-8226) was > 100 µM (inactive). For the same compound, the GI50 (RXF 393) was > 100 µM (inactive), the GI50 (SF-268) was > 100 µM (inactive) and the GI50 (SF-295) was 64 µM (inactive). The GI50 (SF-539) was > 100 µM (inactive), the GI50 (SK-MEL-2) was > 100 µM (inactive) and the GI50 (SK-MEL-5) was > 100 µM (inactive). For the same compound, the GI50 (SK-OV-3) was > 100 µM (inactive), the GI50 (SN12C) was > 100 µM (inactive) and the GI50 (SNB-19) was > 100 µM (inactive). The GI50 (SNB-75) was > 100 µM (inactive), the GI50 (SR) was > 100 µM (inactive) and the GI50 (SW-620) was > 100 µM (inactive). The GI50 (TK-10) was > 100 µM (inactive), the GI50 (U-251) was > 100 µM (inactive) and the GI50 (UACC-257) was > 100 µM (inactive). For the same compound, the GI50 (UACC-62) was > 100 µM (inactive) and the GI50 (UO-31) was > 100 µM (inactive).
